{
  "source": "patent US20260001962A1",
  "about": "“COMBINATION THERAPY METHODS WITH T-CELL ENGAGING MOLECULES FOR TREATMENT OF PROSTATE CANCER” (AMGEN INC., priority 2022, published 2026)",
  "origin": "cited, not measured here",
  "key": {"[1]": {"test_system": "mCRPC patients"}, "[2]": {"test_system": "prostate cancer cells", "details": "in vitro; Deegen et al. 2021"}, "[3]": {"test_system": "prostate cancer cells", "details": "reported in literature"}},
  "note": "Entries after “also recorded” stand apart in the source; their conditions may differ.",
  "data": [
    {"smiles": "CO[C@H]1C(=O)[C@]2(C)[C@@H](OC)C[C@H]3OC[C@@]3(OC(C)=O)[C@H]2[C@H](OC(=O)c2ccccc2)[C@]2(O)C[C@H](OC(=O)[C@H](O)[C@@H](NC(=O)OC(C)(C)C)c3ccccc3)C(C)=C1C2(C)C", "note": "[Cabazitaxel]", "values": [
      {"measurement": "increase in median survival compared with mitoxantrone", "setting": "[1]; mCRPC", "result": 2.4, "unit": "months"}
    ]},
    {"smiles": "[223Ra]", "note": "[Radium-223]", "values": [
      {"measurement": "survival", "setting": "[1]; patients with bone metastases, combined with best standard care, vs 11.3", "result": 14.9, "unit": "months"}
    ]},
    {"smiles": "CNC(=O)c1ccc(N2C(=S)N(c3ccc(C#N)c(C(F)(F)F)c3)C(=O)C2(C)C)cc1F", "note": "[enzalutamide]", "values": [
      {"measurement": "OS", "setting": "[1]; first line mCRPC setting, vs 31.3", "result": 35.3, "unit": "months"},
      {"measurement": "cytotoxicity of prostate cancer cells induced by PSMA-targeted T-cell engager (AMG 160)", "setting": "[2]", "result": "enhances cytotoxicity of prostate cancer cells; also recorded: enhance AMG 160-mediated cytotoxicity of prostate cancer cells"},
      {"measurement": "expression of PSMA on prostate cancer cells", "setting": "[3]", "result": "rapidly upregulate expression of PSMA"}
    ]}
  ]
}
